{"source": "patent US12649750B2", "about": "“Macrocyclic compounds, compositions, and methods of using thereof” (Sionna Therapeutics Inc., priority 2022, dated 2026)", "key": {"NBD1": {"molecular_target": "T1, NBD1 (Homo sapiens, UniProt P13569)", "T1 construct": "Purified recombinant NBD1 was produced using previously described methods; made in house", "T1 sequence (P13569 423-646 limits assumed)": "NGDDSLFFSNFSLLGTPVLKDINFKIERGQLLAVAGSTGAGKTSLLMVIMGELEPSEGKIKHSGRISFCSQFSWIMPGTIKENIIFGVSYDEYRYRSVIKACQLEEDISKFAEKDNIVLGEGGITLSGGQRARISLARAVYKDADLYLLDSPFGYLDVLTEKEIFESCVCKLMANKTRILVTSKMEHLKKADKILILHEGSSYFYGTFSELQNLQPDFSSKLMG", "test": "Aggregation analysis using differential static light scattering (DSLS), thermal stability of NBD1 (ΔTagg)", "assay_type": "binding", "conditions": "ΔTagg versus DMSO control, NBD1 0.2 mg/ml", "how_it_was_run": "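Read-out is ΔTagg: the aggregation temperature, taken at the inflection of the light-scattering curve, less the average of DMSO control wells. Recombinant NBD1 (0.2 mg/ml, pH7.6 buffer containing 2 mM ATP) with test compound was heated at 1° C. per minute up to 70° C.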"}, "CFTR": {"molecular_target": "T2, CFTR (Homo sapiens, UniProt P13569, DEL508-508)", "T2 construct": "Primary human bronchial epithelial cells from a ΔF508 homozygous CF donor; host or cells: primary human bronchial epithelial cells (CF-HBE), ΔF508 homozygous donor", "T2 sequence (P13569 with tags, fused parts or gaps DEL508-508)": "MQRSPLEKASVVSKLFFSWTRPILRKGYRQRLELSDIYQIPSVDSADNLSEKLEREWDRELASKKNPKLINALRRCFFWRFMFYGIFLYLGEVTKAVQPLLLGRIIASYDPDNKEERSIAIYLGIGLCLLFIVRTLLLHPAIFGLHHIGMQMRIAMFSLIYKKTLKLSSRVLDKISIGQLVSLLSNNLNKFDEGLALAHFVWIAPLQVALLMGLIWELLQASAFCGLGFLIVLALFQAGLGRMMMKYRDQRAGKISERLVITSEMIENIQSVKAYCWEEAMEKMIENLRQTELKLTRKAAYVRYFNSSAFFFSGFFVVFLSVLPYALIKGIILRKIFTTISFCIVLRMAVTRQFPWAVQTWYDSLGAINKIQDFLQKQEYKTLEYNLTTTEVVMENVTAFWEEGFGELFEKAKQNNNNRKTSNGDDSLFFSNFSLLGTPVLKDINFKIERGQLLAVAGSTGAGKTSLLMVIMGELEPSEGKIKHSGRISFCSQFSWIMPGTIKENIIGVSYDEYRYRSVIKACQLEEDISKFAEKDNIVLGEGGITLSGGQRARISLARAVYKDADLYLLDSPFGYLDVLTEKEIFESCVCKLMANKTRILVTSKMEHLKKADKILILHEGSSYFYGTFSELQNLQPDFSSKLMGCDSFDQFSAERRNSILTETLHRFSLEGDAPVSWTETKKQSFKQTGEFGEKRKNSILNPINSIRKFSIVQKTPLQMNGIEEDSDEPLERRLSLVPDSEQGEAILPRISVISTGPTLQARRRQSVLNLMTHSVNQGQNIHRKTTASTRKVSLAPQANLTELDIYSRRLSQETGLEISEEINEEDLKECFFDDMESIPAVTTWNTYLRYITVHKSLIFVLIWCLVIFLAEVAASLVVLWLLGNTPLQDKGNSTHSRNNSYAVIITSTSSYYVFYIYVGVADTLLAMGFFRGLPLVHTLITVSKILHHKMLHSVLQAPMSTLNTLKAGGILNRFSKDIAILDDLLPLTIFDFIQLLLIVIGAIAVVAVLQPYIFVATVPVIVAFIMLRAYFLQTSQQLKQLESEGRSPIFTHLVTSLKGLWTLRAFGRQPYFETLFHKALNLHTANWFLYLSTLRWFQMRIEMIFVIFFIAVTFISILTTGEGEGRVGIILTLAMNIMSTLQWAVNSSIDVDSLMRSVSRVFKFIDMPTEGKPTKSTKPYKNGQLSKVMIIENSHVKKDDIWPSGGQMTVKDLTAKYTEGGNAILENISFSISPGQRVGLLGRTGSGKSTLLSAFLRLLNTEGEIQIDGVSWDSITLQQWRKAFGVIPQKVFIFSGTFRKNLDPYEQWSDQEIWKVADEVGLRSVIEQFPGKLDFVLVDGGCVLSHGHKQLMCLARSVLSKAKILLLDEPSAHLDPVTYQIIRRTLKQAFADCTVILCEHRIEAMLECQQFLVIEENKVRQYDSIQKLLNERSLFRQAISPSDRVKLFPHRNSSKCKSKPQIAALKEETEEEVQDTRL", "test": "TECC24 AUC fold over DMSO @10 μM, CFTR-mediated transepithelial chloride transport in CF-HBE cells", "assay_type": "cell-based", "conditions": "test agent AUC divided by DMSO vehicle AUC, primary CF-HBE cells, ΔF508 homozygous donor, 48 hours incubation", "how_it_was_run": "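Primary ΔF508-homozygous CF bronchial epithelial cells on inserts were incubated 48 h at 36.5 °C with compound in IL-13-containing medium. VT and TEER were then recorded in current-clamp mode (pH 7.4 HEPES bath) with benzamil 10 μM, forskolin 10 μM, then CFTR inhibitor-172 20 μM. The IEQ AUC between forskolin and inhibitor was divided by vehicle AUC.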"}}, "data": [{"smiles": "Cn1nc2nc1-c1cc(ccc1F)Oc1c(F)cc3[nH]ccc3c1Cc1ccnn1CCS(=O)(=O)CCC2(C)c1cccc(CCC(=O)O)c1", "note": "(centres unmarked) [Compound 99, 3-[3-(25,31-Difluoro-3,6-dimethyl-9,9-dioxo-27-oxa-9λ6-thia-3,4,12,13,22,33-hexazahexacyclo[26.3.1.12,5.012,16.018,26.019,23]tritriaconta-1(32),2(33),4,13,15,18,20,23,25,28,30-undecaen-6-yl)phenyl]propanoic Acid]", "values": [{"measurement": "DSLS 3D (100 μM ΔT)", "setting": "NBD1", "result": "A (an ΔTagg value less than or equal to 5 °C is marked “A”)"}, {"measurement": "TECC (AUC, 10 μM)", "setting": "CFTR", "result": "A (a TECC value less than 12 is marked “A”)"}]}, {"smiles": "[2H]C([2H])([2H])C1(c2cccc(CC(C)C(=O)O)c2F)CCCC(C)(C)CS(=O)(=O)CCc2c(c(F)cc3[nH]ccc23)Oc2ccc(F)c(c2)-c2nc1nn2C", "note": "(single isomer, unassigned) [Compound 18B, 3-[3-[22,28-difluoro-3,10,10-trimethyl-12,12-dioxo-6-(trideuteriomethyl)-24-oxa-12lambda6-thia-3,4,19,30-tetrazapentacyclo[23.3.1.12,5.015,23.016,20]triaconta-1(29),2(30),4,15,17,20,22,25,27-nonaen-6-yl]-2-fluoro-phenyl]-2-methyl-propanoic acid]", "values": [{"measurement": "DSLS 3D (100 μM ΔT)", "setting": "NBD1", "result": "C (a value greater than 10 °C and less than or equal to 25 °C is marked “C”)"}, {"measurement": "TECC (AUC, 10 μM)", "setting": "CFTR", "result": "B (a value between 12-20 is marked “B”)"}]}, {"smiles": "CC1(C)CCCC(C)(c2cccc(CC3(C(=O)O)CC3)c2)c2c[nH]c(n2)-c2cc(ccc2F)Oc2c(F)cc3[nH]ccc3c2CCS(=O)(=O)C1", "note": "(single isomer, unassigned) [Compound 171A, 1-[[3-(22,28-difluoro-6,10,10-trimethyl-12,12-dioxo-24-oxa-12λ6-thia-3,19,30-triazapentacyclo[23.3.1.12,5.015,23.016,20]triaconta-1(29),2(30),4,15,17,20,22,25,27-nonaen-6-yl)phenyl]methyl]cyclopropanecarboxylic Acid]", "values": [{"measurement": "DSLS 3D (100 μM ΔT)", "setting": "NBD1", "result": "A (an ΔTagg value less than or equal to 5 °C is marked “A”)"}, {"measurement": "TECC (AUC, 10 μM)", "setting": "CFTR", "result": "A (a TECC value less than 12 is marked “A”)"}]}, {"smiles": "Cn1nc2nc1-c1cc(ccc1F)Oc1c(F)cc3[nH]ccc3c1CCS(=O)(=O)CC(C)(C)OCCC2(C#N)c1cccc(CC2(C(=O)O)CC2)c1", "note": "(single isomer, unassigned) [Compound 123A, 1-[[3-(6-cyano-22,28-difluoro-3,10,10-trimethyl-12,12-dioxo-9,24-dioxa-12λ6-thia-3,4,19,30-tetrazapentacyclo[23.3.1.12,5.015,23.016,20]triaconta-1(29),2(30),4,15,17,20,22,25,27-nonaen-6-yl)phenyl]methyl]cyclopropanecarboxylic Acid]", "values": [{"measurement": "DSLS 3D (100 μM ΔT)", "setting": "NBD1", "result": "A (an ΔTagg value less than or equal to 5 °C is marked “A”)"}, {"measurement": "TECC (AUC, 10 μM)", "setting": "CFTR", "result": "A (a TECC value less than 12 is marked “A”)"}]}, {"smiles": "Cn1nc2nc1-c1cc(ccc1F)[S+]([O-])c1c(F)cc3[nH]ccc3c1CCS(=O)(=O)CC(C)(C)CCC[C@]2(C)c1cccc(C[C@@H](O)CO)c1", "note": "(single isomer, unassigned) [Compound 235B]", "values": [{"measurement": "DSLS 3D (100 μM ΔT)", "setting": "NBD1", "result": "C (a value greater than 10 °C and less than or equal to 25 °C is marked “C”)"}, {"measurement": "TECC (AUC, 10 μM)", "setting": "CFTR", "result": "C (a value between 20 and 80 is marked “C”)"}]}, {"smiles": "C[C@@H](Cc1cccc([C@@]2(C)CCCC(C)(C)CS(=O)(=O)CCc3c(c(F)cc4[nH]ccc34)[S+]([O-])c3ccc(F)c(c3)-c3nc2cs3)c1)C(=O)O", "note": "(single isomer, unassigned) [Compound 241A]", "values": [{"measurement": "DSLS 3D (100 μM ΔT)", "setting": "NBD1", "result": "A (an ΔTagg value less than or equal to 5 °C is marked “A”)"}, {"measurement": "TECC (AUC, 10 μM)", "setting": "CFTR", "result": "C (a value between 20 and 80 is marked “C”)"}]}, {"smiles": "CONC(=O)[C@@H](C)Cc1cccc(C2(C)CCCC(C)(C)CS(=O)(=O)CCc3c(c(F)cc4[nH]ccc34)Oc3ccc(F)c(c3)-c3nc2nn3C)c1", "note": "(single isomer, unassigned) [Compound 147]", "values": [{"measurement": "DSLS 3D (100 μM ΔT)", "setting": "NBD1", "result": "C (a value greater than 10 °C and less than or equal to 25 °C is marked “C”)"}, {"measurement": "TECC (AUC, 10 μM)", "setting": "CFTR", "result": "A (a TECC value less than 12 is marked “A”)"}]}, {"smiles": "CC(Oc1cccc(C2(C)CCCC(C)(C)CS(=O)(=O)CCc3c(c(F)cc4[nH]ccc34)Oc3ccc(F)c(c3)-c3nc2nn3C)c1)C(=O)O", "note": "(single isomer, unassigned) [Compound 19A, 2-[3-[22,28-difluoro-3,6,10,10-tetramethyl-12,12-dioxo-24-oxa-12 6-thia-3,4,19,30-tetrazapentacyclo[23.3.1.12,5.015,23.016,20]triaconta-1(29),2(30),4,15,17,20,22,25,27-nonaen-6-yl]phenoxy]propanoic Acid]", "values": [{"measurement": "DSLS 3D (100 μM ΔT)", "setting": "NBD1", "result": "C (a value greater than 10 °C and less than or equal to 25 °C is marked “C”)"}, {"measurement": "TECC (AUC, 10 μM)", "setting": "CFTR", "result": "C (a value between 20 and 80 is marked “C”)"}]}, {"smiles": "C[C@@H](Cc1cccc([C@@]2(C)CCCC(C)(C)CS(=O)(=O)CCc3c(c(F)c(F)c4[nH]ccc34)Oc3ccnc(c3)-c3nc2nn3C)c1)C(=O)O", "note": "[Compound 262, (2S)-3-[3-[(6R)-21,22-Difluoro-3,6,10,10-tetramethyl-12,12-dioxo-24-oxa-12λ6-thia-3,4,19,28,30-pentazapentacyclo[23.3.1.12,5.015,23.016,20]triaconta-1(29),2(30),4,15,17,20,22,25,27-nonaen-6-yl]phenyl]-2-methyl-propanoic Acid]", "values": [{"measurement": "DSLS 3D (100 μM ΔT)", "setting": "NBD1", "result": "C (a value greater than 10 °C and less than or equal to 25 °C is marked “C”)"}, {"measurement": "TECC (AUC, 10 μM)", "setting": "CFTR", "result": "C (a value between 20 and 80 is marked “C”)"}]}, {"smiles": "CC1(C)COCCC(c2cccc(CCC(=O)O)c2)n2nccc2-c2cc(ccc2F)Oc2c(F)cc3[nH]ccc3c2CS(=O)(=O)C1", "note": "(centres unmarked) [Compound 60, 3-[3-(23,29-Difluoro-12,12-dimethyl-14,14-dioxo-10,25-dioxa-14λ6-thia-5,6,20-triazapentacyclo[24.3.1.02,6.016,24.017,21]triaconta-1(30),2,4,16,18,21,23,26,28-nonaen-7-yl)phenyl]propanoic Acid]", "values": [{"measurement": "DSLS 3D (100 μM ΔT)", "setting": "NBD1", "result": "A (an ΔTagg value less than or equal to 5 °C is marked “A”)"}, {"measurement": "TECC (AUC, 10 μM)", "setting": "CFTR", "result": "A (a TECC value less than 12 is marked “A”)"}]}, {"smiles": "C[C@H](Cc1cccc([C@@]2(C)CCCC(C)(C)CS(=O)(=O)CCc3c(ccc4[nH]ccc34)Oc3ccc(F)c(c3)-c3nc2nn3C)c1)C(=O)O", "note": "[Compound 190, (2R)-3-[3-[(6R)-28-fluoro-3,6,10,10-tetramethyl-12,12-dioxo-24-oxa-12λ6-thia-3,4,19,30-tetrazapentacyclo[23.3.1.12,5.015,23.016,20]triaconta-1(29),2(30),4,15,17,20,22,25,27-nonaen-6-yl]phenyl]-2-methyl-propanoic Acid]", "values": [{"measurement": "DSLS 3D (100 μM ΔT)", "setting": "NBD1", "result": "C (a value greater than 10 °C and less than or equal to 25 °C is marked “C”)"}, {"measurement": "TECC (AUC, 10 μM)", "setting": "CFTR", "result": "B (a value between 12-20 is marked “B”)"}]}, {"smiles": "CC1(c2cccc(CCC(=O)O)c2)CCCCCS(=O)(=O)CCc2c(c(F)cc3[nH]ccc23)Oc2ccc(F)c(c2)-c2ncc1[nH]2", "note": "(centres unmarked) [Compound 37, 3-[3-(22,28-Difluoro-6-methyl-12,12-dioxo-24-oxa-12λ6-thia-3,19,30-triazapentacyclo[23.3.1.12,5.015,23.016,20]triaconta-1(29),2,4,15,17,20,22,25,27-nonaen-6-yl)phenyl]propanoic Acid]", "values": [{"measurement": "DSLS 3D (100 μM ΔT)", "setting": "NBD1", "result": "C (a value greater than 10 °C and less than or equal to 25 °C is marked “C”)"}, {"measurement": "TECC (AUC, 10 μM)", "setting": "CFTR", "result": "A (a TECC value less than 12 is marked “A”)"}]}, {"smiles": "Cn1nc2nc1-c1cc(ccc1F)Oc1c(F)cc3[nH]ccc3c1CCS(=O)(=O)CCCCOC2c1cccc(CCCO)c1", "note": "(centres unmarked) [Compound 296, 3-[3-(22,28-Difluoro-3-methyl-12,12-dioxo-7,24-dioxa-12lambda6-thia-3,4,19,30-tetrazapentacyclo[23.3.1.^12,5.0^15,23.0^16,20]triaconta-1(29),2(30),4,15(23),16(20),17,21,25,27-nonaen-6-yl)phenyl]propan-1-ol]", "values": [{"measurement": "DSLS 3D (100 μM ΔT)", "setting": "NBD1", "result": "A (an ΔTagg value less than or equal to 5 °C is marked “A”)"}, {"measurement": "TECC (AUC, 10 μM)", "setting": "CFTR", "result": "A (a TECC value less than 12 is marked “A”)"}]}, {"smiles": "Cn1nc2nc1-c1cc(ccn1)[S+]([O-])c1c(F)cc3[nH]ccc3c1CCS(=O)(=O)CC(C)(C)CCC[C@]2(C)c1cccc(CCO)c1", "note": "(single isomer, unassigned) [Compound 250]", "values": [{"measurement": "DSLS 3D (100 μM ΔT)", "setting": "NBD1", "result": "C (a value greater than 10 °C and less than or equal to 25 °C is marked “C”)"}, {"measurement": "TECC (AUC, 10 μM)", "setting": "CFTR", "result": "C (a value between 20 and 80 is marked “C”)"}]}, {"smiles": "CC1(C)CCCCC(C)(c2cccc(CCC(=O)O)c2)c2cnc([nH]2)-c2cc(ccc2F)Oc2c(F)cc3[nH]ccc3c2CCS(=O)(=O)C1", "note": "(single isomer, unassigned) [Compound 43A, 3-[3-(23,29-difluoro-6,11,11-trimethyl-13,13-dioxo-25-oxa-13lambda6-thia-3,20,31-triazapentacyclo[24.3.1.12,5.016,24.017,21]hentriaconta-1(30),2,4,16,18,21,23,26,28-nonaen-6-yl)phenyl]propanoic Acid]", "values": [{"measurement": "DSLS 3D (100 μM ΔT)", "setting": "NBD1", "result": "A (an ΔTagg value less than or equal to 5 °C is marked “A”)"}, {"measurement": "TECC (AUC, 10 μM)", "setting": "CFTR", "result": "A (a TECC value less than 12 is marked “A”)"}]}, {"smiles": "Cn1nc2nc1-c1cc(ccn1)Oc1c(F)cc3[nH]ccc3c1CCS(=O)(=O)CC(C)(C)CCC[C@]2(C)c1cccc(CCO)c1", "note": "[Compound 227, 2-[3-[(6R)-22-Fluoro-3,6,10,10-tetramethyl-12,12-dioxo-24-oxa-12λ6-thia-3,4,19,28,30-pentazapentacyclo[23.3.1.12,5.015,23.016,20]triaconta-1(29),2(30),4,15,17,20,22,25,27-nonaen-6-yl]phenyl]ethanol]", "values": [{"measurement": "DSLS 3D (100 μM ΔT)", "setting": "NBD1", "result": "C (a value greater than 10 °C and less than or equal to 25 °C is marked “C”)"}, {"measurement": "TECC (AUC, 10 μM)", "setting": "CFTR", "result": "B (a value between 12-20 is marked “B”)"}]}]}
